From US20160081309A1, “FRUCTOBACILLUS AS A PROBIOTIC FOR HONEYBEES” (Indiana University Research & Technology Corporation, priority 2014, published 2016) come the findings set out here.

SMILES strings stand for the structures.

For one assay, the system named is Fructobacillus sp. Description: Antibiotic sensitivity test, soft agar overlay with antibiotic discs. The class given is cell-based. Particulars: Fructobacillus soft MRS agar overlay, disc content 5-30 mcg as given per antibiotic; for Zone of Inhibition: BBL Sensi-Disc. The protocol:
Evolutionary analyses were conducted in MEGA6 using the 16S rRNA gene sequences and using a Maximum Likelihood method based on the General Time Reversible Model with a gamma distribution, invariable sites and 100 bootstrap replicates (Tamura et al. (2013) Mol Biol Evol, 30:2725-2729). For antibiotic sensitivity tests, overnight cultures of Fructobacillus sp. were mixed with soft MRS agar and overlayed onto MRS plates onto which an antibiotic impregnated disc had been placed. Diameters of zones of inhibition were measured around each antibiotic disc using a ruler. Antibiotics used were BBL Sensi-Disc tetracycline 30 mcg, ampicillin with sulbactam 20 mcg, rifampin 5 mcg, ciprofloxacin 5 mcg, and vancomycin 30 mcg.
Honey bees are commonly prophylactically treated with oxytetracycline for the prevention of foulbrood diseases caused by the bacteria Melissococcus plutonius and Paenibacillus larvae. […] The bacterial strain's resistance to antibiotics was determined, as treatment might alter the abundance of Fructobacillus in the hive. Using soft agar overlays, Fructobacillus cultures were exposed to five different antibiotics (tetracycline, ampicillin (with sulbactam), rifampicin, ciprofloxacin, and vancomycin), and the resulting zones of inhibition were measured (Table 3). […] These two antibiotics are commonly used in agriculture.

The next assay deals with Fructobacillus FJL. Description: Carbon source utilization assay (Biolog MT2 plates). The class given is cell-based. Conditions: 2% carbohydrate, Biolog MT2, 30° C. aerobic; versus water-only controls, unpaired t-test p≦0.001. The protocol:
The same Fructobacillus isolate as used for co-culture assays was grown for 72 hours in MRS broth at 30° C. under aerobic conditions. Cells were pelleted via centrifugation and the supernatant was removed. The pellet was resuspended in a buffer of 0.1M Tris-HCl (pH 6.5). This centrifugation and resuspension process was performed twice to ensure removal of all residual MRS. 15 μl of cell suspension was added to each well of a Biolog MT2 plate (Biolog Inc.). To this, 150 μl of 2% carbohydrate solutions were added to the wells, with each carbohydrate repeated in triplicate. Additionally, water control wells were established in triplicate, inoculated with cell suspension and filtered, autoclaved water. […] Plates were read via spectrophotometry at A590 immediately following inoculation in order to establish as baseline. Plates were incubated aerobically at 30° C., and A590 readings were taken every 24 hours. […] To assess whether a carbon source was utilized, absorbance readings from time points with peak absorbance were compared to absorbance of the initial time point. Absorbance in water control wells was subtracted from absorbance in carbohydrate containing wells. […] A carbon source was determined to have been utilized by Fructobacillus if the difference was statistically significant with a p-value of 0.001 or lower.

`O=C(O)c1cn(C2CC2)c2cc(N3CCNCC3)c(F)cc2c1=O` [Ciprofloxacin]: in the assay on Fructobacillus sp., the “Zone of Inhibition” value is listed as 9 mm and the “Interpretation (antibiotic sensitivity)” value was “Resistant”. For `CO[C@H]1/C=C/O[C@@]2(C)Oc3c(C)c(O)c4c(O)c(c(/C=N/N5CCN(C)CC5)c(O)c4c3C2=O)NC(=O)/C(C)=C\C=C\[C@H](C)[C@H](O)[C@@H](C)[C@@H](O)[C@@H](C)[C@H](OC(C)=O)[C@@H]1C` [Rifampin], in that order: 25 mm and “Susceptible”.

For the molecule `CN(C)[C@@H]1C(O)=C(C(N)=O)C(=O)[C@@]2(O)C(O)=C3C(=O)c4c(O)cccc4[C@@](C)(O)[C@H]3C[C@@H]12` [Tetracycline], the “Zone of Inhibition” value with Fructobacillus sp. is reported as 32 mm. On to `CN[C@H](CC(C)C)C(=O)N[C@H]1C(=O)N[C@@H](CC(N)=O)C(=O)N[C@H]2C(=O)N[C@H]3C(=O)N[C@H](C(=O)N[C@H](C(=O)O)c4cc(O)cc(O)c4-c4cc3ccc4O)[C@H](O)c3ccc(c(Cl)c3)Oc3cc2cc(c3O[C@@H]2O[C@H](CO)[C@@H](O)[C@H](O)[C@H]2O[C@H]2C[C@](C)(N)[C@H](O)[C@H](C)O2)Oc2ccc(cc2Cl)[C@H]1O` [Vancomycin], for which, in the assay with Fructobacillus sp., the “Zone of Inhibition” value was 0 mm and the “Interpretation (antibiotic sensitivity)” value is recorded as “Resistant”. For the molecule `O=C(CO)[C@@H](O)[C@H](O)[C@H](O)CO` [fructose], the “Utilization of carbon source by Fructobacillus” value in the assay with Fructobacillus FJL was “capable of utilizing”.
